“And” between values parts separate entries of the source, which are not always exact repeats. Equal values may be shown once. Read-outs that look alike come from different tables or passages of the source.
What was measured:
[1] = Plasma pharmacokinetics of paracetamol, paracetamol glucuronide and paracetamol sulphate in rats (HPLC-UV, non-compartmental); type: in vivo, Wistar rats; conditions: for AUC0-t / AUC0-∞ / Cmax / AUC(0-inf) / Vd/F / k el / MRT last / AUMC0-t / t0.5: plasma; for MRT last: read-out: MRT0-t
Protocol: The experimental protocol for this study was reviewed and approved by the Local Ethics Committee. All procedures were performed in accordance with the European Union regulations concerning the handling and use of laboratory animals. The study was based on the required minimum number of animals and observation time in order to obtain consistent data. […] The animals were allowed to acclimatise for a week before the beginning of the experiments. The rats were divided into three groups. […] In order to make sure that the animals received the entire dose of the drug, 1 mL of DMSO was then administered to rinse the probe. 80 μL of blood was collected from each rat by cutting off a piece of his tail. […] The blood samples were transferred into heparinised tubes and they were centrifuged at 2880 g for 10 min at 4 °C.
The total time of analysis for each run was 10 min. The column temperature was maintained at 25 °C, the UV detection wavelength was set at 261 nm, and the injection volume was 50 μL. The validation was performed according to the guidelines of the European Medicines Agency (EMA) concerning validation of bioanalytical methods. […] 20 μL of the internal standard solution and 200 μL of 6% perchloric acid were added to 100 μL of the rat plasma. The samples were shaken for 30 s and then they were centrifuged for 10 min at 5000 g. About 100 μL of the resulting supernatants was transferred into glass inserts and a volume of 50 μL was injected onto HPLC column.
The pharmacokinetic parameters were estimated with the non-compartmental method, using Phoenix® WinNonlin® 7.0 software (Certara L.P.). kel – elimination rate constant; AUC0-t – area under the plasma concentration-time curve from zero to the time of the last measurable concentration; AUC0-∞ – area under the plasma concentration-time curve from zero to infinity; t0.5 – elimination half-life; Cl/F – clearance; Vd/F – volume of distribution; Cmax – maximum plasma concentration; tmax – time necessary to reach the maximum concentration; MRT0-t – mean residence time; AUMC0-t – area under the first moment curve.

[2] = liver metabolism; cited from earlier work
UGTs = conditions: in vitro, human liver microsomes; cited from earlier work
[3] = design: method as in PMID 28070719; reduction of exposure to sunitinib by paracetamol / reduction of exposure to sunitinib in liver by paracetamol / reduction of exposure to sunitinib in kidneys by paracetamol / reduction of exposure to sunitinib in brain by paracetamol: concentration or dose not given beside the values; conditions: cited from earlier work
[4] = male mice which received paracetamol; cited from earlier work
[5] = IL + PA vs IIIPA group, listed as paracetamol glucoronide
[6] = paracetamol 100 mg/kg p.o. + lapatinib 100 mg/kg p.o. (IL + PA), M ± SD
[7] = paracetamol 100 mg/kg p.o. alone (IIIPA), M ± SD
[8] = paracetamol + lapatinib 100 mg/kg p.o. each (IL + PA), M ± SD
[9] = male, Wistar, rat, po, 100 mg/kg, paracetamol 100 mg/kg p.o. + lapatinib 100 mg/kg p.o. (IL + PA), M ± SD
[10] = male, Wistar, rat, po, 100 mg/kg, paracetamol 100 mg/kg p.o. alone (IIIPA), M ± SD

CC(=O)Nc1ccc(O[C@@H]2O[C@H](C(=O)O)[C@@H](O)[C@H](O)[C@H]2O)cc1 [paracetamol glucuronide]
decrease in AUC0-t ([1]; IL + PA vs IIIPA group): 26% | decrease in AUC0-∞ ([1]; IL + PA vs IIIPA group): 29% | decrease in Cmax ([1]; IL + PA vs IIIPA group): 24% | decrease in AUC0-t [1, 5]: ~25.5% | decrease in AUC0-∞ [1, 5]: ~28.6% | decrease in Cmax [1, 5]: about 24.4% | AUC0-t [1, 6]: 101.50 ± 22.02 (21.7) μg × h/mL | AUC0-∞ [1, 6]: 109.94 ± 22.89 (20.8) μg × h/mL | Cmax [1, 6]: 29.01 ± 7.62 (26.3) μg/mL | paracetamol glucuronide/paracetamol ratio, AUC0-t [1, 7]: 1.75 ± 0.47 (27.1) | paracetamol glucuronide/paracetamol ratio, Cmax [1, 7]: 1.67 ± 0.41 (24.7) | AUC0-t [1, 7]: 136.24 ± 23.58 (17.31) μg × h/mL | AUC0-∞ [1, 7]: 154.08 ± 35.58 (23.09) μg × h/mL | Cmax [1, 7]: 38.38 ± 3.75 (9.76) μg/mL | paracetamol glucuronide/paracetamol ratio, AUC0-t [1, 8]: 3.68 ± 1.67 (45.4) | paracetamol glucuronide/paracetamol ratio, AUC0-∞ [1, 8]: 3.36 ± 2.37 (70.6) | paracetamol glucuronide/paracetamol ratio, Cmax [1, 8]: 3.58 ± 1.85 (51.5)

CC(=O)Nc1ccc(OS(=O)(=O)O)cc1 [paracetamol sulphate]
increase in AUC0-t ([1]; IL + PA vs IIIPA group): ~61% and 61.4% | AUC0-t [1, 6]: 116.04 ± 27.02 (23.3) μg × h/mL | AUC0-∞ [1, 6]: 130.23 ± 31.32 (24.1) μg × h/mL | Cmax [1, 6]: 35.15 ± 6.61 (18.8) μg/mL | paracetamol sulphate/paracetamol ratio, AUC0-t [1, 7]: 0.91 ± 0.43 (47.3) | paracetamol sulphate/paracetamol ratio, AUC0-∞ [1, 7]: 1.05 ± 0.45 (43.1) | paracetamol sulphate/paracetamol ratio, Cmax [1, 7]: 0.88 ± 0.46 (52.7) | AUC0-t [1, 7]: 71.92 ± 31.04 (43.2) μg × h/mL | AUC0-∞ [1, 7]: 82.42 ± 32.71 (39.7) μg × h/mL | Cmax [1, 7]: 19.41 ± 7.05 (36.4) μg/mL | paracetamol sulphate/paracetamol ratio, AUC0-t [1, 8]: 4.27 ± 2.29 (53.5) | paracetamol sulphate/paracetamol ratio, AUC0-∞ [1, 8]: 4.86 ± 2.74 (56.5) | paracetamol sulphate/paracetamol ratio, Cmax [1, 8]: 4.73 ± 3.02 (64.0)

CC(=O)Nc1ccc(O)cc1 [paracetamol, Paracetamol]
decrease in AUC0-t ([1]; IL + PA vs IIIPA group): ~56.8% | decrease in AUC0-∞ ([1]; IL + PA vs IIIPA group): 48.8% | increase in MRT0-t ([1]; IL + PA vs IIIPA group): 12.1% | increase in Vd/F ([1]; IL + PA vs IIIPA group): 351.5% | AUC(0-inf) [1, 9]: 45400 ± 21200 ng·h/mL | Vd/F [1, 9]: 8.94 ± 8.04 L | k el [1, 9]: 6.67e-05 s⁻¹ | AUC0-t ([1]; male, Wistar, rat, po, 100 mg/kg, paracetamol 100 mg/kg p.o. + lapatinib 100 mg/kg p.o. (IL + PA), M ± SD, read-out: AUC0-t): 34800 ± 20100 ng·h/mL | Cmax ([1]; male, Wistar, rat, po, 100 mg/kg, paracetamol 100 mg/kg p.o. + lapatinib 100 mg/kg p.o. (IL + PA), M ± SD, read-out: Cmax): 10900 ± 6880 ng/mL | MRT last [1, 9]: 2.88 ± 0.27 h | AUC(0-inf) [1, 10]: 88600 ± 8960 ng·h/mL | Vd/F [1, 10]: 1.98 ± 0.63 L | k el [1, 10]: 9.17e-05 s⁻¹ | AUC0-t ([1]; male, Wistar, rat, po, 100 mg/kg, paracetamol 100 mg/kg p.o. alone (IIIPA), M ± SD, read-out: AUC0-t): 80500 ± 12100 ng·h/mL | Cmax ([1]; male, Wistar, rat, po, 100 mg/kg, paracetamol 100 mg/kg p.o. alone (IIIPA), M ± SD, read-out: Cmax): 24700 ± 8430 ng/mL | MRT last [1, 10]: 2.57 ± 0.3 h | AUMC0-t [1, 6]: 97.11 ± 52.00 (53.6) μg × h^2/mL | t0.5 [1, 6]: 5.30 ± 6.92 (130.7) h | AUMC0-t [1, 7]: 203.85 ± 18.15 (8.9) μg × h^2/mL | t0.5 [1, 7]: 2.26 ± 0.70 (31.0) h | fraction oxidised to toxic metabolite NAPQI [2]: less than 10% | fraction transformed by glucuronidation [2]: 40–60% | fraction transformed by sulphation [2]: 20–46%

CNC(=O)c1cc(Oc2ccc(NC(=O)Nc3ccc(Cl)c(C(F)(F)F)c3)cc2)ccn1 [sorafenib]
inhibition of paracetamol glucuronidation (UGTs): inhibited paracetamol glucuronidation

CCN(CC)CCNC(=O)c1c(C)[nH]c(/C=C2\C(=O)Nc3ccc(F)cc32)c1C [sunitinib]
effect of paracetamol on sunitinib concentration ([3]; female mice): did not affect the concentration | reduction of exposure to sunitinib in brain by paracetamol ([3]; female mice): 50% | reduction of exposure to sunitinib in kidneys by paracetamol ([3]; female mice): 20% | reduction of exposure to sunitinib in liver by paracetamol ([3]; female mice): 9% | reduction of exposure to sunitinib by paracetamol ([3]; male mice): 29% | reduction of exposure to sunitinib in brain by paracetamol ([3]; male mice): 47% | reduction of exposure to sunitinib in kidneys by paracetamol ([3]; male mice): 15% | reduction of exposure to sunitinib in liver by paracetamol ([3]; male mice): 15% | kidney sunitinib concentration vs control group [4]: 1.4 times | liver sunitinib concentration vs control group [4]: 2.2 times

COc1cc2c(Nc3ccc(Br)cc3F)ncnc2cc1OCC1CCN(C)CC1 [vandetanib]
inhibition of paracetamol glucuronidation (UGTs): slight inhibitory effect

— article PMC6153549 (Investigational New Drugs, 2018)
